In ChEMBL document CHEMBL3407474, “Structural insight of glitazone for hepato-toxicity: Resolving mystery by PASS” (Bioorg Med Chem Lett, 2015):
The source made the active and inactive calls. The rule behind the calls is not given here.

Key:
HepG2 [1] = experiment: Induction of p53 protein level in human HepG2 cells at 50 uM upto 24 hrs by immunoblot analysis; type: functional, cell-based
HepG2 [2] = experiment: Induction of p53 protein level in human HepG2 cells at 50 uM by immunoblot analysis; type: functional, cell-based; conditions: TDE = time-dependent effect

Q: For Cc1c(C)c2c(c(C)c1O)CCC(C)(COc1ccc(CC3SC(=O)NC3=O)cc1)O2 (centres undefined), which Activity (HepG2 [1]) is on record?
A: Active

Q: What about the Activity (HepG2 [2]) of the same molecule?
A: tde

Q: With CCc1ccc(CCOc2ccc(CC3SC(=O)NC3=O)cc2)nc1 (centres undefined) as the molecule, how does the Activity (HepG2 [1]) read?
A: inactive

Q: With CN(CCOc1ccc(CC2SC(=O)NC2=O)cc1)c1ccccn1 (centres undefined) as the molecule, how does the Activity (HepG2 [1]) read?
A: inactive
